Assay results reported in ChEMBL document CHEMBL1765032, “β-Branched acyclic nucleoside analogues as inhibitors of Plasmodium falciparum dUTPase” (Bioorg Med Chem, 2011).
pEC50, pKi: −log10 of the molar value.

Key:
L6 = test: Cytotoxicity against rat L6 cells after 72 hrs by alamar blue assay; format: cell-based; conditions: L6, 72 h
Plasmodium falciparum = test: microbe, parasite or virus in culture; conditions: K1
[1] = target: T1, Deoxyuridine 5'-triphosphate nucleotidohydrolase, mitochondrial (Homo sapiens, UniProt P33316); test: Inhibition of human dUTPase by spectrophotometric analysis
T1 sequence (P33316 whole entry): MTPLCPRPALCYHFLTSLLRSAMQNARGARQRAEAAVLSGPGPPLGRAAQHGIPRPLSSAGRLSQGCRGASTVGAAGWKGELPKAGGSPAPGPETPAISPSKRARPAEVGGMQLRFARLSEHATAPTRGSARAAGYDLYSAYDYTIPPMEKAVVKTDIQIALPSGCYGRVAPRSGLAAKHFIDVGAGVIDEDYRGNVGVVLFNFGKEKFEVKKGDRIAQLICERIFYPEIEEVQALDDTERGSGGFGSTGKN

[2] = Inhibition of Plasmodium falciparum dUTPase by spectrophotometric analysis
[3] = Selectivity index, ratio of EC50 for rat L6 cells to EC50 for chloroquine-resistant erythrocytic stage of Plasmodium falciparum K1; format: toxicity, cell-based; conditions: read-out: Ratio EC50

| SMILES | pEC50 (L6) | pEC50 (Plasmodium falciparum) | pKi [1] | pKi [2] | selectivity ratio [3] |
| --- | --- | --- | --- | --- | --- |
| O=c1ccn(CC(CO)CCOC(c2ccccc2)(c2ccccc2)c2ccccc2)c(=O)[nH]1 (racemic) | 4.48 | 5.92 |  |  |  |
| O=C(C(CCOC(c1ccccc1)(c1ccccc1)c1ccccc1)Cn1ccc(=O)[nH]c1=O)N1CCOCC1 (racemic) |  |  | < 4.00 | 5.68 |  |
| CN1CCN(C(=O)C(CCOC(c2ccccc2)(c2ccccc2)c2ccccc2)Cn2ccc(=O)[nH]c2=O)CC1 (racemic) |  |  | < 4.00 | 5.25 |  |
| CC(C)(C)[Si](OCCC(Cn1ccc(=O)[nH]c1=O)C(N)=O)(c1ccccc1)c1ccccc1 (racemic) |  |  | < 4.00 | 5.30 |  |
| O=c1ccn([C@H]2C[C@H](O)[C@@H](CNC(c3ccccc3)(c3ccccc3)c3ccccc3)O2)c(=O)[nH]1 | 4.36 | 5.35 |  |  |  |
| NC(=O)C(CCOC(c1ccccc1)(c1ccccc1)c1ccccc1)Cn1ccc(=O)[nH]c1=O (racemic) |  |  | < 4.00 | 5.89 |  |
| COc1cc([C@@H]2c3cc4c(cc3[C@H](O)[C@H]3COC(=O)[C@H]23)OCO4)cc(OC)c1OC [PODOFILOX] |  | 7.92 |  |  |  |
| NC(=O)C(CCNC(c1ccccc1)(c1ccccc1)c1ccccc1)Cn1ccc(=O)[nH]c1=O (racemic) | 3.75 | 5.96 | 4.01 | 5.26 | 161 |
| O=c1ccn(CCCCOC(c2ccccc2)(c2ccccc2)c2ccccc2)c(=O)[nH]1 | 4.38 | 5.31 |  |  |  |
| O=C(OCc1ccccc1)OCC(CCNC(c1ccccc1)(c1ccccc1)c1ccccc1)Cn1ccc(=O)[nH]c1=O (racemic) |  |  | < 4.00 | 5.19 |  |
| CNC(=O)C(CCO[Si](c1ccccc1)(c1ccccc1)C(C)(C)C)Cn1ccc(=O)[nH]c1=O (racemic) |  |  | < 4.00 | 5.44 |  |
| CN(C)CCNC(=O)C(CCOC(c1ccccc1)(c1ccccc1)c1ccccc1)Cn1ccc(=O)[nH]c1=O (racemic) |  |  | < 4.00 | 5.11 |  |
| CCN(CC)C(=O)C(CCO[Si](c1ccccc1)(c1ccccc1)C(C)(C)C)Cn1ccc(=O)[nH]c1=O (racemic) |  |  | < 4.00 | 4.70 |  |
| O=C(O)C(CCNC(c1ccccc1)(c1ccccc1)c1ccccc1)Cn1ccc(=O)[nH]c1=O (racemic) | 4.29 | 5.89 | 4.05 | 5.14 | 39 |
| CC(C)(C)[Si](OCCC(Cn1ccc(=O)[nH]c1=O)C(=O)N1CCN(C(=O)OCc2ccccc2)CC1)(c1ccccc1)c1ccccc1 (racemic) |  |  | < 4.00 | 4.01 |  |
| CC(C)(C)[Si](OCCC(Cn1ccc(=O)[nH]c1=O)C(=O)O)(c1ccccc1)c1ccccc1 (racemic) |  |  | < 4.00 | 5.80 |  |
| O=C(NCCO)C(CCOC(c1ccccc1)(c1ccccc1)c1ccccc1)Cn1ccc(=O)[nH]c1=O (racemic) |  |  | < 4.00 |  |  |
| COCCNC(=O)C(CCOC(c1ccccc1)(c1ccccc1)c1ccccc1)Cn1ccc(=O)[nH]c1=O (racemic) |  |  | < 4.00 | 5.85 |  |
| CCOC(=O)CCNC(=O)C(CCOC(c1ccccc1)(c1ccccc1)c1ccccc1)Cn1ccc(=O)[nH]c1=O (racemic) |  |  | < 4.00 | 6.30 |  |
| CN(C)C(=O)C(CCOC(c1ccccc1)(c1ccccc1)c1ccccc1)Cn1ccc(=O)[nH]c1=O (racemic) |  |  | < 4.00 | 5.57 |  |
| O=c1ccn([C@H]2C[C@H](O)[C@@H](COC(c3ccccc3)(c3ccccc3)c3ccccc3)O2)c(=O)[nH]1 | 3.72 | 5.22 |  |  |  |
| O=C(O)CCNC(=O)C(CCOC(c1ccccc1)(c1ccccc1)c1ccccc1)Cn1ccc(=O)[nH]c1=O (racemic) |  |  | < 4.00 | 6.70 |  |
| CCNC(=O)C(CCO[Si](c1ccccc1)(c1ccccc1)C(C)(C)C)Cn1ccc(=O)[nH]c1=O (racemic) |  |  | < 4.00 | 5.24 |  |
| CC(C)(C)[Si](OCCNC(=O)C(CCOC(c1ccccc1)(c1ccccc1)c1ccccc1)Cn1ccc(=O)[nH]c1=O)(c1ccccc1)c1ccccc1 (racemic) |  |  | < 4.00 | < 5.00 |  |
